Where two headings read alike, the source gives them in different places.
Columns and labels:
[1] = system: serotonin reuptake (3H-5-HT uptake into whole rat brain synaptosomes); assay: Inhibition of 3H-5-HT uptake into rat brain synaptosomes; type: biochemical
Procedure: Inhibition of ^3H-5HT Uptake Into Rat Brain Synaptosomes
Using this method, the ability of drugs to inhibit the accumulation of ^3H-5-HT into whole rat brain synaptosomes is determined in vitro.

[2] = molecular target: T1, cloned human 5-HT1A receptors (Homo sapiens, UniProt P08908); assay: Inhibition of 3H-5-CT binding to human 5-HT1A receptors
T1 construct: expressed in transfected cells; host or cells: HeLa cells (HA7), stably transfected; cell homogenate
T1 sequence (P08908 1-422): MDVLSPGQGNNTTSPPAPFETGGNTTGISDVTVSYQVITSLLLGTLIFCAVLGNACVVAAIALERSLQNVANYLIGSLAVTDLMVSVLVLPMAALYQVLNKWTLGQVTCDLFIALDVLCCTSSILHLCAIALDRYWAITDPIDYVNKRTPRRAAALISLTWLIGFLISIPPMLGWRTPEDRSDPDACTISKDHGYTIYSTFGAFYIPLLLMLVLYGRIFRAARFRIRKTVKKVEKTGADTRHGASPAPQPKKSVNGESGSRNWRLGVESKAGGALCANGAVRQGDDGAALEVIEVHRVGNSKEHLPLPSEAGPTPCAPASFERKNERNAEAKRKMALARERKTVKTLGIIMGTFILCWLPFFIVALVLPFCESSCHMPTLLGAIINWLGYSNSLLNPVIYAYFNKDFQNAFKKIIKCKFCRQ
Procedure: Inhibition of ^3H-5CT Binding to Human 5-HT1A Receptors
Human 5-HT1A receptors (40 μg of cell homogenate) were incubated for 15 minutes at 37° C. in 50 mM Tris buffer at pH 7.7 in the presence of ^3H-5-CT. Non-specific binding was determined by including 10 μM of metergoline. The reaction was terminated by rapid filtration through Unifilter GF/B filters on a Tomtec Cell Harvester. Filters were counted in a Packard Top Counter.

[3] = cloned human 5-HT1A receptors expressed in HeLa cells (HA7)

SMILES | Inhibition of serotonin reuptake % inhibition at 100 nM [1] [% inh. at 100 nM] | IC50 [2, 3] [nM] | IC50 [1] [nM] | IC50 [2] [nM] | inhibition at 0.1 µM ([2]; read-out: Inhibition of 3H-5-CT binding % inhibition at 100 nM, at 100 nM, cloned human 5-HT1A receptors expressed in HeLa cells (HA7)) [%]
C=CCN(CCCC1(c2ccc(F)cc2)OCc2cc(C#N)ccc21)CCc1cccc(OC)c1 (stereo not drawn) [Compound 4c, 1-(4-Fluorophenyl)-1-[3-[[2-(3-methoxyphenyl)ethyl](prop-2-en-1-yl)amino]propyl]-1,3-dihydroisobenzofuran-5-carbonitrile] | 4 | 11 |  |  | 
C=CCN(CCCC1(c2ccc(F)cc2)OCc2cc(C#N)ccc21)CCc1ccccc1OC (stereo not drawn) [Compound 4d, 1-(4-Fluorophenyl)-1-[3-[[2-(2-methoxyphenyl)ethyl](prop-2-en-1-yl)amino]propyl]-1,3-dihydroisobenzofuran-5-carbonitrile] | 7 | 4.5 |  |  | 
COc1ccc(OC)c(CCN(C)CCCC2(c3ccc(F)cc3)OCc3cc(C#N)ccc32)c1 (stereo not drawn) [Compound 4e, 1-[3-[[2-(2,5-Dimethoxyphenyl)ethyl]methylamino]propyl]-1-(4-fluorophenyl)-1,3-dihydroisobenzofuran-5-carbonitrile] |  |  | 160 | 17 | 
C=CCN(CCCC1(c2ccc(F)cc2)OCc2cc(C#N)ccc21)CCc1cc(OC)ccc1OC (stereo not drawn) [Compound 4f, 1-[3-[[2-(2,5-Dimethoxyphenyl)ethyl](prop-2-en-1-yl)amino]propyl]-1-(4-fluorophenyl)-1,3-dihydroisobenzofuran-5-carbonitrile] | 4 | 1.6 |  |  | 
CN(CCCC1(c2ccc(F)cc2)OCc2cc(C#N)ccc21)CCOc1ccccc1 (stereo not drawn) [Compound 4g, 1-(4-Fluorophenyl)-1-[3-[[2-phenoxyethyl]methylamino]propyl]-1,3-dihydroisobenzofuran-5carbonitrile] | 28 | 18 |  |  | 
C=CCN(CCCC1(c2ccc(F)cc2)OCc2cc(C#N)ccc21)CCc1c[nH]c2ccccc12 (stereo not drawn) [Compound 4h, 1-[3-[[2-(1H-Indolyl-3-yl)ethyl](prop-2-en-1-yl)amino]propyl]-1-(4-fluorophenyl) 1,3-dihydroisobenzofuran-5carbonitrile] |  | 3.2 | 69 |  | 
C=CCN(CCCC1(c2ccc(F)cc2)OCc2cc(C#N)ccc21)CCOc1ccccc1 (stereo not drawn) [Compound 4i, 1-(4-Fluorophenyl)-1-[3-[[2-phenoxyethyl](prop-2-en-1-yl)amino]propyl]-1,3-dihydroisobenzofuran-5carbonitrile] | 26 | 1.9 |  |  | 
COc1ccccc1CCCN(C)CCCC1(c2ccc(F)cc2)OCc2cc(C#N)ccc21 (stereo not drawn) [Compound 4j, 1-(4Fluorophenyl)-1-[3-[[3-(2-methoxyphenyl)propyl]methylamino]propyl]-1,3-dihydroisobenzofuran-5-carbonitrile] |  | 6.1 | 78 |  | 
C=CCN(CCCc1ccccc1OC)CCCC1(c2ccc(F)cc2)OCc2cc(C#N)ccc21 (stereo not drawn) [Compound 4k, 1-(4-Fluorophenyl)-1-[3-[[3-(2-methoxyphenyl)propyl](prop-2-en-1-yl)amino]propyl]-1,3-dihydroisobenzofuran-5-carbonitrile] |  | 0.42 | 100 |  | 
C=CCN(CCCOc1ccccc1OC)CCCC1(c2ccc(F)cc2)OCc2cc(C#N)ccc21 (stereo not drawn) [Compound 4n, 1-(4-Fluorophenyl)-1-[3-[[3-(2-methoxyphenoxy)propyl](prop-2-en-1-yl)amino]propyl]-1,3-dihydroisobenzofuran-5-carbonitrile] | 39 | 14 |  |  | 
COc1cccc(OCCCN(C)CCCC2(c3ccc(F)cc3)OCc3cc(C#N)ccc32)c1 (stereo not drawn) [Compound 4o, 1-(4-Fluorophenyl)-1-[3-[[3-(3-methoxyphenoxy)propyl]methylamino]propyl]-1,3-dihydroisobenzofuran-5-carbonitrile] |  | 26 | 73 |  | 
C=CCN(CCCOc1cccc(OC)c1)CCCC1(c2ccc(F)cc2)OCc2cc(C#N)ccc21 (stereo not drawn) [Compound 4p] | 6 | 19 |  |  | 
CN(CCCC1(c2ccc(F)cc2)OCc2cc(C#N)ccc21)CCOCc1ccccc1 (stereo not drawn) [Compound 4q, 1-[3-[(2-Benzyloxyethyl)methylamino]propyl]-1-(4-fluorophenyl)-1,3-dihydroisobenzofuran-5-carbonitrile] | 60 | 16 |  |  | 
C=CCN(CCCC1(c2ccc(F)cc2)OCc2cc(C#N)ccc21)CCOCc1ccccc1 (stereo not drawn) [Compound 4r, 1-[3-[(2-Benzyloxyethyl)(prop-2-en-1-yl)amino]propyl]-1-(4-fluorophenyl)-1,3-dihydroisobenzofuran-5-carbonitrile] | 19 | 11 |  |  | 
CN(CCCc1c[nH]c2ccccc12)CCCC1(c2ccc(F)cc2)OCc2cc(C#N)ccc21 (stereo not drawn) [Compound 4s, 1-[3-[[3-(1H-Indol-3-yl)propyl]methylamino]propyl]-1-(4-fluorophenyl)-1,3-dihydroisobenzofuran-5-carbonitrile] |  | 30 | 35 |  | 
C=CCN(CCCc1c[nH]c2ccccc12)CCCC1(c2ccc(F)cc2)OCc2cc(C#N)ccc21 (stereo not drawn) [Compound 4t, 1-[3-[[3-(1H-Indol-3-yl)propyl](prop-2-en-1-yl)amino]propyl]-1-(4-fluorophenyl)-1,3-dihydroisobenzofuran-5-carbonitrile] | 73 |  |  |  | 69
CN(CCCc1c[nH]c2ccc(Br)cc12)CCCC1(c2ccc(F)cc2)OCc2cc(C#N)ccc21 (stereo not drawn) [Compound 12aa, 1-[3-[[3-(5-Bromo-1H-indol-3-yl)propyl]methylamino]propyl]-1-(4-fluorophenyl)-1,3-dihydroisobenzofuran-5-carbonitrile] | 37 | 16 |  |  | 
CCN(CCCC1(c2ccc(F)cc2)OCc2cc(C#N)ccc21)CCc1c[nH]c2ccc(Br)cc12 (stereo not drawn) [Compound 12ab, 1-[3-[[2-(5-Bromo-1H-indol-3-yl)ethyl]ethylamino]propyl]-1-(4-fluorophenyl)-1,3-dihydroisobenzofuran-5-carbonitrile] | 50 | 20 |  |  | 
CCN(CCCc1c[nH]c2ccc(Br)cc12)CCCC1(c2ccc(F)cc2)OCc2cc(C#N)ccc21 (stereo not drawn) [Compound 12ad, 1-(3-[[3-(5-Bromo-1H-indol-3-yl)propyl]ethylamino]propyl]-1-(4fluorophenyl)-1,3-dihydroisobenzofuran-5-carbonitrile] | 35 | 21 |  |  | 
CCN(CCCC1(c2ccc(F)cc2)OCc2cc(C#N)ccc21)CCc1c[nH]c2ccc(I)cc12 (stereo not drawn) [Compound 12ae] | 49 | 11 |  |  | 
CCN(CCCc1c[nH]c2ccc(I)cc12)CCCC1(c2ccc(F)cc2)OCc2cc(C#N)ccc21 (stereo not drawn) [Compound 12af, 1-[3-[Ethyl[3-(5-iodo-1H-indol-3-yl)propyl]amino]propyl]-1-(4-fluorophenyl)-1,3-dihydroisobenzofuran-5-carbonitrile] | 38 | 31 |  |  | 
Cc1ccc2[nH]cc(CCCN(C)CCCC3(c4ccc(F)cc4)OCc4cc(F)ccc43)c2c1 (stereo not drawn) [Compound 12c, 5-Fluoro-1-[3-[[3-(5-methyl-1H-indol-3-yl)propyl]methylamino]propyl]-1-(4-fluorophenyl)-1,3-dihydroisobenzofuran] |  | 19 | 17 |  | 
CN(CCCc1c[nH]c2c(F)cccc12)CCCC1(c2ccc(F)cc2)OCc2cc(F)ccc21 (stereo not drawn) [Compound 12d, 5-Fluoro-1-[3-[[3-(7-fluoro-1H-indol-3-yl)propyl]methylamino]propyl]-1-(4-fluorophenyl)-1,3dihydroisobenzofuran] |  | 31 | 12 |  | 
CCN(CCCc1c[nH]c2ccccc12)CCCC1(c2ccc(F)cc2)OCc2cc(C#N)ccc21 (stereo not drawn) [Compound 12f] |  | 4.7 | 13 |  | 
CN(CCCc1c[nH]c2ccc(F)cc12)CCCC1(c2ccc(F)cc2)OCc2cc(C#N)ccc21 (stereo not drawn) [Compound 12i, 1-[3-[[3-(5-Fluoro-1H-indol-3-yl)propyl]methylamino]propyl]-1-(4-fluorophenyl)-1,3-dihydroisobenzofuran-5-carbonitrile] |  | 27 | 20 |  | 
CCN(CCCC1(c2ccc(F)cc2)OCc2cc(C#N)ccc21)CCc1c[nH]c2ccc(F)cc12 (stereo not drawn) [Compound 12j, 1-[3-[Ethyl[2-(5-fluoro-1H-indol-3-yl)ethyl]amino]propyl]-1-(4fluorophenyl)-1,3-dihydroisobenzofuran-5-carbonitrile] |  | 7.9 | 14 |  | 
CCN(CCCC1(c2ccc(F)cc2)OCc2cc(C#N)ccc21)CCc1c[nH]c2c(F)cccc12 (stereo not drawn) [Compound 12k] |  | 3.6 | 8.4 |  | 

From patent US6492374B2, “Benzofuran derivatives, their preparation and use” (H. Lundbeck A/S, priority 1998, dated 2002)
